Where two headings read alike, the source gives them in different places.
Columns and labels:
[1] = Light exposure of methanolic montelukast solution to sunshine under inert argon, (Z)-isomer content by HPLC; format: physicochemical; details: methanol solution, argon atmosphere
[2] = Stress test: methanolic solution of montelukast exposed to sunshine and air oxygen, HPLC monitoring; format: physicochemical
Method: The solution in glass apparatus was exposed to the influence of sunshine and air oxygen and samples were take repeatedly (at the times of 40 minutes, 1 day, 4 days and 14 days) (20 μl of the mixture further diluted by methanol to the volume of 1 ml) for HPLC analysis in the isocratic mode.
HPLC chromatograms were measured with the EliteLachrom device of Hitachi. For the analyses a column filled with the stationary phase of RP-18e was used, column temperature 20° C. As the mobile phase a mixture of acetonitrile (80%) and a 0.1 M aqueous solution of ammonium formate, treated with formic acid to pH 3.6 (20%), was used. The measurements were performed in the isocratic mode with the mobile phase flow rate of 1.5 ml/min. Spectrophotometric detection at the wavelength of 234 nm was used. For the preparation of the samples to be analyzed methanol was used as the solvent, 10-20 μl of the prepared solution were used for the injection.

[3] = for content of (Z)-montelukast in isolated montelukast: after 3 hours reflux in toluene, precipitation with heptane

content of the (Z)-isomer according to HPLC after exposure to sunshine ([1]; sunshine 1.5 hours (Example 7)) [%]	content of the (Z)-isomer according to HPLC after exposure to sunshine ([1]; sunshine 1.5 hours (Example 7), listed as Montelukast)	content of the (Z)-isomer according to HPLC after exposure to sunshine ([1]; sunshine 4 days (Example 9))	rate of transformation of montelukast to (Z)-montelukast sulfoxide (XII) ([2]; light and oxygen induced degradation)	rate of transformation of montelukast (I) to (Z)-montelukast (V) ([2]; methanolic solution, sunshine and air oxygen)	sensitivity of the substance to light and air oxygen ([2]; methanolic solution, sunshine and air oxygen, HPLC isocratic)	content of (Z)-montelukast in isolated montelukast [3]	content of (Z)-montelukast in isolated montelukast ([3]; listed as (Z)-isomer)	content of (Z)-montelukast, initial mixture of isomers ([3]; before reflux, toluene solution) [%]	content of (Z)-montelukast after 30 minutes of reflux ([3]; toluene, without light) [%]	content of (Z)-montelukast after 60 minutes of reflux ([3]; toluene, without light) [%]	SMILES
11	approximately 11%	approx. 73%	relatively slow	unexpectedly fast	high sensitivity	–	–	–	–	–	CC(C)(O)c1ccccc1CC[C@@H](SCC1(CC(=O)[O-])CC1)c1cccc(/C=C/c2ccc3ccc(Cl)cc3n2)c1.[Na+] [montelukast, sodium salt of [R-(E)]-1-[[[1-[3-[2-(7-chloro-2-quinolinyl)ethenyl]phenyl]-3-[2-(1-hydroxy-1-methylethyl)phenyl]propyl]thio]-methyl]cyclopropane acetic acid]
–	–	–	–	–	–	below 0.1%	less than 0.1%	11	5.6	2.7	CC(C)(O)c1ccccc1CC[C@@H](SCC1(CC(=O)[O-])CC1)c1cccc(/C=C\c2ccc3ccc(Cl)cc3n2)c1.[Na+] [(Z)-montelukast, sodium salt of 1-[[[(1R)-1-[3-[(1Z)-2-(7-chloro-2-quinolinyl)ethenyl]phenyl]-3-[2-(1-hydroxy-1-methylethyl)phenyl]propyl]thio]methyl]cyclopropane acetic acid]
